Where two headings read alike, the source gives them in different places.
What was measured:
[1] = test system: Tg4510 mice; test: Neuronal counts in CA1 and CA3 regions of hippocampus (stereology) in Tg4510 mice; assay type: in vivo, mouse; details: Tg4510 mice at 5.5 months
Procedure: Mice were euthanized by cervical dislocation at 5. 5 months followed by decapitation. Brains were immediately removed and divided down the midline into two hemispheres. The right hemisphere was placed into 20 mL of 4% paraformaldehyde (prepared fresh on the day of sacrifice) and stored overnight at 4° C. The following day, the brains were transferred to a tube containing 20 mL TBS (pH 7.4, 20 mM TRIS, 100 mM NaCl) and then stored at 4° C. until processing. Right hemispheres were embedded in paraffin, sectioned at 5 microns, and mounted on positively charged glass slides. The slides were dried overnight in a 60° C. oven and stored at room temperature until stained. The left hemispheres were frozen (within 2 minutes) on dry ice.
Nissl stained slides were scanned and digitized using the Aperio ScanScope (Aperio Technologies, Inc., Vista, Calif.). Images of the entire brain section were captured at high resolution and stored as files within Spectrum (Aperio software). To process images, a region of 4,000×4,000 pixels including the entire hippocampus was captured using the extract tool and saved as a JPEG file for importing into Metamorph (Molecular Devices, Sunnyvale, Calif.) for quantification of cell loss within the CA1 and CA3 regions of the hippocampus. A modified version of the single section dissector method (Moller et al. 1990) was utilized to quantify cell loss because of its suitability for thin, paraffin-embedded tissue sections. To obtain relative numbers of cells, every fifth section was collected as the paraffin-embedded brains were cut sagitally between the Bregma and approximately 0.75 mm laterally. Three regions were drawn and counted per section using Metamorph software. The same regions were used for every image and 5 sections were counted per animal, 5 slides apart. Statistics were performed using ANOVA followed by Dunnett's post-hoc test.
Previous studies had shown that Tg4510 mice lost about 60% of their neurons in the CA1 region of the hippocampus at 5.5 months (Santacruz et al. 2005). […]

[2] = Plasma, brain and liver levels of epothilone D after bolus IV in triple transgenic mice; assay type: in vivo, mouse; details: bolus IV 5 mpk; for concentration at […]: .33 hr
Description: To calculate an accurate brain half-life for a long half-life compound, measurements need to be taken for several half lives after a single dose.

[3] = triple transgenic (Oddo et al. 2003), mouse, brain, 5 mg/kg, read-out: Brain conc
[4] = triple transgenic (Oddo et al. 2003), mouse, plasma, 5 mg/kg, read-out: Plasma conc

For `C/C1=C/C[C@@H](/C(C)=C/c2csc(C)n2)OC(=O)C[C@H](O)C(C)(C)C(=O)[C@H](C)[C@@H](O)[C@@H](C)CCC1` [Epothilone D, epothilone D], the “CA3 total cell count” value ([1]; 1 mpk IP weekly, vs vehicle) was “significant differences between the 1 mpk and non-transgenic mice compared to vehicle treated mice”, the CA1 neuronal count ([1]; 1 mpk IP weekly, vs vehicle, p<0.01) was “substantially more CA1 neurons than vehicle-treated animals” and the CA1 neuronal count ([1]; 10 mpk IP weekly) was “intermediate between the vehicle-treated mice and the mice treated with 1 mpk”. For the same compound, the “retention in brain tissue after a single dose” value [2] was “at least 168 h”, the Plasma conc ([2]; 96 hr) was “<LLQ (0.6 nM)” and the Plasma conc ([2]; 168 hr) was “<LLQ (0.6 nM)”. It also gave a concentration at 24 h ([2]; mouse, liver, 5 mg/kg, below LLQ, read-out: liver levels) of under 49 nM, a concentration at 0.05 h [2, 3] of 1130 nM and a concentration at 0.17 h [2, 3] of 595 nM. The concentration at 1 h [2, 3] was 422 nM, the concentration at 3 h [2, 3] was 468 nM and the concentration at 6 h [2, 3] was 141 nM. The concentration at 16 h [2, 3] was 210 nM, the concentration at 24 h [2, 3] was 82.7 nM and the concentration at 96 h ([2]; triple transgenic (Oddo et al. 2003), mouse, brain, 5 mg/kg, 96 hr, read-out: Brain conc) was 25.2 nM. For the same compound, the concentration at 168 h ([2]; triple transgenic (Oddo et al. 2003), mouse, brain, 5 mg/kg, 168 hr, read-out: Brain conc) was 16.3 nM, the concentration at […] [2, 3] was 529 nM and the concentration at 0.05 h [2, 4] was 25100 nM. The concentration at 0.17 h [2, 4] was 2000 nM, the concentration at 1 h [2, 4] was 325 nM and the concentration at 3 h [2, 4] was 70 nM. For the same compound, the concentration at 6 h [2, 4] was 43 nM, the concentration at 16 h [2, 4] was 0.8 nM and the concentration at 24 h [2, 4] was 0.9 nM. It also gave a concentration at […] [2, 4] of 549 nM.

— patent US8673949B2 (Bristol-Myers Squibb Company, priority 2008, dated 2014)
